Measurements reported in US20260315452A1, “PROTEASE INHIBITORS AND USES THEREOF” (priority 2023, published 2026).
Where a name gives a salt, the structure may show the parent alone.

Key:
SARS-CoV-2 3CLpro = SARS-CoV-2 3CLpro (Severe acute respiratory syndrome coronavirus 2, UniProt P0DTD1); assay: biochemical; conditions: inhibition of SARS-CoV-2 3CLpro; 15 nM 3CLpro, 25 μM fluorogenic substrate, 37° C.; read-out: Inhibitory Activity (IC50)
SARS-CoV-2 = assay: Anti-SARS-CoV-2 activity in A549 cells expressing the human ACE2 receptor (inhibition of SARS-CoV-2 replication); format: cell-based; conditions: for EC50: Severe acute respiratory syndrome coronavirus 2, A549-ACE2, 24 h, read-out: Antiviral Activity (EC50)

Row | Compound | IC50 (SARS-CoV-2 3CLpro) [nM] | EC50 (SARS-CoV-2) [nM] | antiviral potency in A549 cells in comparison with compound Ref-2 (SARS-CoV-2; A549 cells, versus Ref-2 (FIG. 7))
1 | O=C(NC1CC(F)(F)C1)c1cc(Br)cc(C(F)(F)F)c1N[C@@H]1COCC[C@@H]1NC(=O)c1cncc2cc(F)ccc12 [Compound 80, N-((3S, 4S)-3-((4-bromo-2-((3,3-difluorocyclobutyl)carbamoyl)-6-(trifluoromethyl)phenyl)amino)tetrahydro-2H-pyran-4-yl)-7-fluoroisoquinoline-4-carboxamide] | 100 to 1000 | 100 to 1000 | 
2 | CNC(=O)c1cc(Br)cc([N+](=O)[O-])c1NC(C(C)C)C1CN(C(=O)c2cncc3ccccc23)C1 (stereo not drawn) [Compound 99, 5-bromo-2-((1-(1-(isoquinoline-4-carbonyl)azetidin-3-yl)-2-methylpropyl)amino)-N-methyl-3-nitrobenzamide] | 100 to 1000 | 100 to 1000 | 
3 | CNC(=O)c1cc(Br)cc([N+](=O)[O-])c1NC1CC2(C1)CN(C(=O)c1cncc3ccccc13)C2 [Compound 13, 5-bromo-2-((2-(isoquinoline-4-carbonyl)-2-azaspiro[3.3]heptan-6-yl)amino)-N-methyl-3-nitrobenzamide] | ≥ 10000 | > 10000 | 
4 | CNC(=O)c1cc(Br)cc([N+](=O)[O-])c1N1CCC2(CN(C(=O)c3cncc4ccccc34)CC2(F)F)C1 (stereo not drawn) [Compound 129, 5-bromo-2-(9,9-difluoro-7-(isoquinoline-4-carbonyl)-2,7-diazaspiro[4, 4]nonan-2-yl)-N-methyl-3-nitrobenzamide] | 100 to 1000 | 100 to 1000 | 
5 | CNC(=O)c1cc(Br)cc([N+](=O)[O-])c1N[C@@H]1CCCC[C@@H]1NC(=O)C[C@@H]1CCNC1=O [Compound 7, 5-bromo-N-methyl-3-nitro-2-(((1R, 2S)-2-(2-((S)-2-oxopyrrolidin-3-yl)acetamido)cyclohexyl)amino)benzamide] | 1000 to 10000 | > 10000 | 
6 | CC(C)C(Nc1c(C(=O)N[C@H](C)C(F)(F)F)cc(Br)cc1[N+](=O)[O-])C1CN(C(=O)c2cncc3ccccc23)C1 (stereo partly drawn) [Compound 124, 5-bromo-2-((1-(1-(isoquinoline-4-carbonyl)azetidin-3-yl)-2-methylpropyl)amino)-3-nitro-N-((R)-1,1,1-trifluoropropan-2-yl)benzamide] | < 100 | < 100 | 
7 | O=C(NC1CC(F)(F)C1)c1cc(Br)cc([N+](=O)[O-])c1N1CCC2(CN(C(=O)c3cncc4ccccc34)CC2(F)F)C1 (stereo not drawn) [Compound 27, 5-bromo-2-(9,9-difluoro-7-(isoquinoline-4-carbonyl)-2,7-diazaspiro[4. 4]nonan-2-yl)-N-(3,3-difluorocyclobutyl)-3-nitrobenzamide] | < 100 | 100 to 1000 | 
8 | NC(=O)c1cc(Br)cc([N+](=O)[O-])c1N[C@@H]1CCCC[C@@H]1NC(=O)c1cncc2ccccc12 [Compound 53, N-((1S,2R)-2-((4-bromo-2-carbamoyl-6-nitrophenyl)amino)cyclohexyl)isoquinoline-4-carboxamide] | 100 to 1000 | 1000 to 10000 | 
9 | CN(C)C1CN(C(=O)c2cc(Cl)cc([N+](=O)[O-])c2N[C@H]2CN(C(=O)c3cncc4ccccc34)CCC2(F)F)C1 [Compound 94, (S)-(5-chloro-2-((4,4-difluoro-1-(isoquinoline-4-carbonyl)piperidin-3-yl)amino)-3-nitrophenyl)(3-(dimethylamino)azetidin-1-yl)methanone hydrochloride] | < 100 | < 100 | 
10 | COC1CN(C(=O)c2cc(Cl)cc([N+](=O)[O-])c2N[C@H]2CN(C(=O)c3cncc4ccccc34)CCC2(F)F)C1 [Compound 44, (S)-(5-chloro-2-((4,4-difluoro-1-(isoquinoline-4-carbonyl)piperidin-3-yl)amino)-3-nitrophenyl)(3-methoxyazetidin-1-yl)methanone] | < 100 | < 100 | 
11 | CC1(NC(=O)c2cc(Br)cc([N+](=O)[O-])c2N[C@H]2CN(C(=O)c3cncc4ccccc34)CCC2(F)F)CC1 [Compound 157, (S)-5-bromo-2-((4,4-difluoro-1-(isoquinoline-4-carbonyl)piperidin-3-yl)amino)-N-(1-methylcyclopropyl)-3-nitrobenzamide] | < 100 | < 100 | 
12 | O=C(NCC(F)(F)F)c1cc(Cl)cc([N+](=O)[O-])c1N[C@H]1CN(C(=O)c2cncc3ccccc23)CCC1(F)F [Compound 91, (S)-5-chloro-2-((4,4-difluoro-1-(isoquinoline-4-carbonyl)piperidin-3-yl)amino)-3-nitro-N-(2,2,2-trifluoroethyl) benzamide] | < 100 | < 100 | 
13 | C=CCNC(=O)c1cc(Cl)cc([N+](=O)[O-])c1N[C@H]1CN(C(=O)c2cncc3ccccc23)CCC1(F)F [Compound 42, (S)-N-allyl-5-chloro-2-((4,4-difluoro-1-(isoquinoline-4-carbonyl)piperidin-3-yl)amino)-3-nitrobenzamide] | < 100 | < 100 | 
14 | CNC(=O)c1cc(Br)cc(C(F)(F)F)c1N[C@H]1CN(C(=O)c2cncc3ccccc23)CCC1(F)F [Compound 35, (S)-5-bromo-2-((4,4-difluoro-1-(isoquinoline-4-carbonyl)piperidin-3-yl)amino)-N-methyl-3-(trifluoromethyl)benzamide] | < 100 | < 100 | 
15 | CNC(=O)c1cc(Cl)cc(C(F)(F)F)c1N[C@H]1CN(C(=O)c2cncc3ccccc23)CCC1(F)F [Compound 84, (S)-5-chloro-2-((4,4-difluoro-1-(isoquinoline-4-carbonyl)piperidin-3-yl)amino)-N-methyl-3-(trifluoromethyl)benzamide] | < 100 | < 100 | 
16 | O=C(NC1CC(F)(F)C1)c1cc(Cl)cc(C(F)(F)F)c1N[C@H]1CN(C(=O)c2cncc3ccccc23)CCC1(F)F [Compound 82, (S)-5-chloro-2-((4,4-difluoro-1-(isoquinoline-4-carbonyl)piperidin-3-yl)amino)-N-(3,3-difluorocyclobutyl)-3-(trifluoromethyl)benzamide] | < 100 | < 100 | 
17 | CNC(=O)c1cc(Cl)cc(C(F)(F)F)c1N[C@@H]1COCC[C@@H]1NC(=O)c1cncc2ccccc12 [Compound 146, N-((3S, 4S)-3-((4-chloro-2-(methylcarbamoyl)-6-(trifluoromethyl)phenyl)amino)tetrahydro-2H-pyran-4-yl)isoquinoline-4-carboxamide] | 100 to 1000 | 100 to 1000 | 
18 | O=C(NC1CC(F)(F)C1)c1cc(Cl)cc(C(F)(F)F)c1N[C@@H]1COCC[C@@H]1NC(=O)c1cncc2ccccc12 [Compound 145, N-((3S, 4S)-3-((4-chloro-2-((3,3-difluorocyclobutyl)carbamoyl)-6-(trifluoromethyl)phenyl)amino)tetrahydro-2H-pyran-4-yl)isoquinoline-4-carboxamide] | 100 to 1000 | 100 to 1000 | 
19 | CNC(=O)c1cc(Br)cc([N+](=O)[O-])c1N[C@@H]1CCOC[C@@H]1NC(=O)c1cncc2ccccc12 [Compound 70, N-((3R, 4R)-4-((4-bromo-2-(methylcarbamoyl)-6-nitrophenyl)amino)tetrahydro-2H-pyran-3-yl)isoquinoline-4-carboxamide] | 100 to 1000 | 100 to 1000 | 
20 | CNC(=O)c1cc(Br)cc([N+](=O)[O-])c1N[C@H]1CN(C(=O)c2cncc3ccccc23)CC(F)(F)C1 [Compound 62, (R)-5-bromo-2-((5,5-difluoro-1-(isoquinoline-4-carbonyl)piperidin-3-yl)amino)-N-methyl-3-nitrobenzamide] | 100 to 1000 | 100 to 1000 | 
21 | CNC(=O)c1cc(Br)cc([N+](=O)[O-])c1N[C@@H]1CCCC[C@@H]1NC(=O)c1cncc2cc(F)ccc12 [Compound 8, N-((1S, 2R)-2-((4-bromo-2-(methylcarbamoyl)-6-nitrophenyl)amino)cyclohexyl)-7-fluoroisoquinoline-4-carboxamide] | < 100 | 100 to 1000 | 
22 | Cn1cc(NC(=O)c2cc(Br)cc([N+](=O)[O-])c2N[C@H]2CN(C(=O)c3cncc4ccccc34)CCC2(F)F)cn1 [Compound 155, (S)-5-bromo-2-((4,4-difluoro-1-(isoquinoline-4-carbonyl)piperidin-3-yl)amino)-N-(1-methyl-1H-pyrazol-4-yl)-3-nitrobenzamide] | < 100 | < 100 | 
23 | O=C(N[C@@H]1CCOC1)c1cc(Cl)cc([N+](=O)[O-])c1N[C@H]1CN(C(=O)c2cncc3ccccc23)CCC1(F)F [Compound 142, 5-chloro-2-(((S)-4,4-difluoro-1-(isoquinoline-4-carbonyl)piperidin-3-yl)amino)-3-nitro-N-((R)-tetrahydrofuran-3-yl)benzamide] | < 100 | < 100 | 
24 | O=C(c1cc(Cl)cc([N+](=O)[O-])c1N[C@H]1CN(C(=O)c2cncc3ccccc23)CCC1(F)F)N1CC(O)C1 [Compound 43, (S)-(5-chloro-2-((4,4-difluoro-1-(isoquinoline-4-carbonyl)piperidin-3-yl)amino)-3-nitrophenyl)(3-hydroxyazetidin-1-yl)methanone] | < 100 |  | better antiviral potency
